Assay results published in PubChem BioAssay AID308 (DTP/NCI, 2004).
Several values for one entry are separate records, joined by “and”; a condition that tells them apart may be missing. Identical values can stand only once. Inconclusive results and toxic doses are left out. How the source made its calls: active means survival T/C of 150% or more; inactive means T/C below 125% in these data.

Test system: BDF1 mice, L1210 6-MP/6-TG resistant leukemia ip, survival T/C
Assay: NCI In Vivo Anticancer Drug Screen. Data for tumor model L1210 Leukemia resistant to 6-MP and 6-Thioguanine; NSC 755, NSC 752 (intraperitoneal) in B6D2F1 (BDF1) mice
Details: endpoint: mean survival time, higher = longer survival
Procedure: The antitumor activity of compounds was measured in mice bearing transplantable tumors. Survival or tumor size were measured and the results are expressed as the measurement made in the treated group (T) divided by the measurement made in the vehicle treated control group (C). The tumor model used in this assay is L1210 Leukemia resistant to 6-MP and 6-Thioguanine; NSC 755, NSC 752 (intraperitoneal) in B6D2F1 (BDF1) mice

[1] = dose: 20.0 mg/kg/injection, schedule: Q01DX Z (ip), vehicle: carboxymethylcellulose (CMC)
[2] = dose: 25.0 mg/kg/injection, schedule: Q01DX Z (ip), vehicle: carboxymethylcellulose (CMC)
[3] = dose: 50.0 mg/kg/injection, schedule: Q01DX Z (ip), vehicle: carboxymethylcellulose (CMC)
[4] = dose: 100.0 mg/kg/injection, schedule: Q01DX Z (ip), vehicle: carboxymethylcellulose (CMC)
[5] = dose: 25.0 mg/kg/injection, schedule: Q01DX Z (ip), vehicle: saline
[6] = dose: 50.0 mg/kg/injection, schedule: Q01DX Z (ip), vehicle: saline
[7] = dose: 7.5 mg/kg/injection, schedule: Q01DX Z (ip), vehicle: carboxymethylcellulose (CMC)
[8] = dose: 10.0 mg/kg/injection, schedule: Q01DX Z (ip), vehicle: carboxymethylcellulose (CMC)
[9] = dose: 37.5 mg/kg/injection, schedule: Q01DX Z (ip), vehicle: carboxymethylcellulose (CMC)
[10] = dose: 5.0 mg/kg/injection, schedule: Q01DX Z (ip), vehicle: carboxymethylcellulose (CMC)

Measured: T/C

S=c1nc[nH]c2nc[nH]c12
inactive: dose: 3.5 mg/kg/injection, schedule: Q01DX Z (ip), vehicle: carboxymethylcellulose (CMC) 99 % of control | dose: 5.0 mg/kg/injection, schedule: Q01DX015 (ip), vehicle: carboxymethylcellulose (CMC) 93 % of control and 101 % of control | dose: 7.0 mg/kg/injection, schedule: Q01DX Z (ip), vehicle: carboxymethylcellulose (CMC) 100 % of control and 103 % of control and 106 % of control | dose: 8.0 mg/kg/injection, schedule: Q01DX015 (ip), vehicle: carboxymethylcellulose (CMC) 94 % of control and 97 % of control and 103 % of control | dose: 10.0 mg/kg/injection, schedule: Q01DX015 (ip), vehicle: alkali diluted with saline 96 % of control | dose: 12.0 mg/kg/injection, schedule: Q01DX015 (ip), vehicle: carboxymethylcellulose (CMC) 90 % of control and 95 % of control and 96 % of control | dose: 12.0 mg/kg/injection, schedule: Q01DX Z (ip), vehicle: carboxymethylcellulose (CMC) 110 % of control | dose: 12.5 mg/kg/injection, schedule: Q01DX Z (ip), vehicle: carboxymethylcellulose (CMC) 95 % of control | dose: 14.0 mg/kg/injection, schedule: Q01DX Z (ip), vehicle: carboxymethylcellulose (CMC) 96 % of control and 98 % of control and 104 % of control | dose: 16.0 mg/kg/injection, schedule: Q01DX015 (ip), vehicle: carboxymethylcellulose (CMC) 95 % of control | dose: 18.0 mg/kg/injection, schedule: Q01DX015 (ip), vehicle: carboxymethylcellulose (CMC) 93 % of control and 100 % of control | dose: 19.0 mg/kg/injection, schedule: Q01DX Z (ip), vehicle: carboxymethylcellulose (CMC) 123 % of control | dose: 20.0 mg/kg/injection, schedule: Q01DX015 (ip), vehicle: alkali diluted with saline 103 % of control | dose: 20.0 mg/kg/injection, schedule: Q01DX015 (ip), vehicle: carboxymethylcellulose (CMC) 96 % of control | [1] 101 % of control | dose: 24.0 mg/kg/injection, schedule: Q01DX015 (ip), vehicle: carboxymethylcellulose (CMC) 93 % of control | [2] 88 % of control | dose: 26.0 mg/kg/injection, schedule: Q01DX001 (ip), vehicle: alkali diluted with saline 97 % of control and 101 % of control | dose: 27.0 mg/kg/injection, schedule: Q01DX015 (ip), vehicle: carboxymethylcellulose (CMC) 96 % of control and 100 % of control | dose: 40.0 mg/kg/injection, schedule: Q01DX001 (ip), vehicle: alkali diluted with saline 96 % of control and 98 % of control (2×) | dose: 40.0 mg/kg/injection, schedule: Q01DX001 (ip), vehicle: carboxymethylcellulose (CMC) 102 % of control and 109 % of control | dose: 40.0 mg/kg/injection, schedule: Q01DX015 (ip), vehicle: alkali diluted with saline 103 % of control | dose: 40.0 mg/kg/injection, schedule: Q01DX015 (ip), vehicle: carboxymethylcellulose (CMC) 92 % of control and 95 % of control | dose: 42.0 mg/kg/injection, schedule: Q01DX Z (ip), vehicle: carboxymethylcellulose (CMC) 103 % of control | [3] 91 % of control | dose: 56.0 mg/kg/injection, schedule: Q01DX Z (ip), vehicle: carboxymethylcellulose (CMC) 93 % of control and 97 % of control | dose: 59.0 mg/kg/injection, schedule: Q01DX001 (ip), vehicle: carboxymethylcellulose (CMC) 100 % of control | dose: 60.0 mg/kg/injection, schedule: Q01DX001 (ip), vehicle: alkali diluted with saline 96 % of control (2×) and 106 % of control | dose: 60.0 mg/kg/injection, schedule: Q01DX001 (ip), vehicle: carboxymethylcellulose (CMC) 108 % of control | dose: 60.0 mg/kg/injection, schedule: Q01DX010 (ip), vehicle: alkali diluted with saline 94 % of control | dose: 90.0 mg/kg/injection, schedule: Q01DX001 (ip), vehicle: alkali diluted with saline 87 % of control and 97 % of control and 103 % of control | dose: 90.0 mg/kg/injection, schedule: Q01DX001 (ip), vehicle: carboxymethylcellulose (CMC) 99 % of control and 102 % of control | [4] 91 % of control | dose: 135.0 mg/kg/injection, schedule: Q01DX001 (ip), vehicle: alkali diluted with saline 96 % of control and 103 % of control and 105 % of control | dose: 150.0 mg/kg/injection, schedule: Q01DX001 (ip), vehicle: carboxymethylcellulose (CMC) 96 % of control | dose: 202.0 mg/kg/injection, schedule: Q01DX001 (ip), vehicle: alkali diluted with saline 99 % of control and 100 % of control and 102 % of control | dose: 203.0 mg/kg/injection, schedule: Q01DX001 (ip), vehicle: carboxymethylcellulose (CMC) 95 % of control

COS(C)(=O)=O
inactive: [5] 105 % of control | [6] 114 % of control | dose: 75.0 mg/kg/injection, schedule: Q01DX Z (ip), vehicle: saline 116 % of control | dose: 100.0 mg/kg/injection, schedule: Q01DX Z (ip), vehicle: saline 106 % of control

Nc1ncnc2[nH]ncc12
inactive: [7] 105 % of control | [8] 92 % of control | dose: 15.0 mg/kg/injection, schedule: Q01DX Z (ip), vehicle: carboxymethylcellulose (CMC) 94 % of control | [2] 97 % of control

Cc1cc(N(CCCl)CCCl)ccc1N=Nc1ccccc1C(=O)O
inactive: dose: 4.5 mg/kg/injection, schedule: Q01DX Z (ip), vehicle: carboxymethylcellulose (CMC) 119 % of control | dose: 9.0 mg/kg/injection, schedule: Q01DX Z (ip), vehicle: carboxymethylcellulose (CMC) 124 % of control | dose: 18.75 mg/kg/injection, schedule: Q01DX Z (ip), vehicle: carboxymethylcellulose (CMC) 114 % of control | [2] 123 % of control | [9] 90 % of control

Clc1ncnc2c1ncn2C1CCCCO1 (centres undefined)
inactive: dose: 62.0 mg/kg/injection, schedule: Q01DX Z (ip), vehicle: other 96 % of control | dose: 125.0 mg/kg/injection, schedule: Q01DX Z (ip), vehicle: other 91 % of control

CC(=O)Nc1ccc2nc3ccc(NC(C)=O)cc3[n+](-c3ccccc3)c2c1
inactive: dose: 1.25 mg/kg/injection, schedule: Q01DX Z (ip), vehicle: carboxymethylcellulose (CMC) 95 % of control | dose: 2.5 mg/kg/injection, schedule: Q01DX Z (ip), vehicle: carboxymethylcellulose (CMC) 103 % of control | [4] 121 % of control | dose: 300.0 mg/kg/injection, schedule: Q01DX Z (ip), vehicle: carboxymethylcellulose (CMC) 122 % of control
active: [7] 154 % of control | [2] 202 % of control | [3] 176 % of control | dose: 75.0 mg/kg/injection, schedule: Q01DX Z (ip), vehicle: carboxymethylcellulose (CMC) 180 % of control | dose: 200.0 mg/kg/injection, schedule: Q01DX Z (ip), vehicle: carboxymethylcellulose (CMC) 150 % of control

[N-]=[N+]=CC(=O)NCC(=O)NN
inactive: dose: 62.0 mg/kg/injection, schedule: Q01DX Z (ip), vehicle: saline 114 % of control

NS(=O)(=O)c1ncnc2nc[nH]c12
inactive: dose: 6.0 mg/kg/injection, schedule: Q01DX Z (ip), vehicle: carboxymethylcellulose (CMC) 122 % of control | [5] 112 % of control | [6] 96 % of control

Nc1nc(SCc2ccccc2)c2[nH]cnc2n1
inactive: [10] 88 % of control | [8] 91 % of control | [2] 86 % of control | [9] 95 % of control

O=C(O)CCCc1ccc(N(CCCl)CCCl)cc1
inactive: [10] 117 % of control | [8] 114 % of control | [1] 115 % of control | dose: 30.0 mg/kg/injection, schedule: Q01DX Z (ip), vehicle: carboxymethylcellulose (CMC) 89 % of control

C[C@H](N)C(=O)N[C@@H]1[C@H]2C(=C(O)C[C@@H](O)[C@@H]2O)C(=O)O[C@@H]1C
inactive: dose: 2000.0 mg/kg/injection, schedule: Q01DX Z (ip), vehicle: saline 100 % of control
active: dose: 330.0 mg/kg/injection, schedule: Q01DX015 (ip), vehicle: carboxymethylcellulose (CMC) 152 % of control | dose: 500.0 mg/kg/injection, schedule: Q01DX Z (ip), vehicle: saline 189 % of control | dose: 750.0 mg/kg/injection, schedule: Q01DX Z (ip), vehicle: saline 185 % of control

CC(=O)O[C@]1(C(C)=O)CC[C@H]2[C@@H]3C[C@H](C)C4=CC(=O)C=C[C@]4(C)[C@@]3(F)[C@@H](O)C[C@@]21C
inactive: dose: 37.5 mg/kg/injection, schedule: Q01DX Z (sc), vehicle: steriod suspending solution 101 % of control | dose: 100.0 mg/kg/injection, schedule: Q01DX Z (sc), vehicle: steriod suspending solution 89 % of control
